Test results published in paper PMC8480782, “Efficient Dimerization Disruption of Leishmania infantum Trypanothione Reductase by Triazole-phenyl-thiazoles” (Journal of Medicinal Chemistry, 2021).
Where two headings read alike, the source gives them in different places.

Assays:
LiTryR = biological target: T1, LiTryR (Leishmania infantum, UniProt A4HSF7); test: biochemical; assay type: biochemical; conditions: LiTryR; 1 μM TS2; maximum assayed 75 μM; read-out: IC50^act, TryR oxidoreductase activity
T1 construct: HIS (N); made in house; host or cells: E. coli BL21 (DE3) Rossetta
T1 sequence (A4HSF7 1-491): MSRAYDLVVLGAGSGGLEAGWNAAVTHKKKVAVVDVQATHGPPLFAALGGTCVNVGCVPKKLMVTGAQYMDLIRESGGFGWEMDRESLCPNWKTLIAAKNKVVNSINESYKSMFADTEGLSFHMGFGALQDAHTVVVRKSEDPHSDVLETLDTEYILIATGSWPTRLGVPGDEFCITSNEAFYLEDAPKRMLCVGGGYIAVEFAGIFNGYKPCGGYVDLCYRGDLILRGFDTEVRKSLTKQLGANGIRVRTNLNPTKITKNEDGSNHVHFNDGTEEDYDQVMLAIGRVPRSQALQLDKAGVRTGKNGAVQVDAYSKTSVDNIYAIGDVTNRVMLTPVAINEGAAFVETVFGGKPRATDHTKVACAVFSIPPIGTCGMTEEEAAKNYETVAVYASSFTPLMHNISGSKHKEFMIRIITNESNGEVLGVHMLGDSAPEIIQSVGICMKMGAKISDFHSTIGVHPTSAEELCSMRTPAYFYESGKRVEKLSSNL
Procedure: A concentration of 1 μM TS2 was used for this initial screening. This low substrate concentration is sufficient for comparison of compound inhibitory activity in the oxidoreductase assay.
Recombinant L. infantum TryR (LiTryR) HIS-tagged and HIS-FLAG-tagged versions were used for all LiTryR oxidoreductase activity and dimer quantitation assays. These LiTryR versions were purified from Escherichia coli as previously described.[25] Briefly, pRSETA-HIS-LiTryR construct alone or in combination with the pET24a-FLAG-LiTryR construct was transformed into BL21 (DE3) Rossetta E. coli strain. An overnight E. coli culture grown at 37 °C in Luria–Bertani (LB) medium with the appropriate antibiotics and vigorous shaking was diluted (1:100) in the same medium and allowed to grow in the same conditions until the OD600 was 0.5. Then, LiTryR expression was induced by addition of 1 mM isopropyl-β-D-1-thiogalactopyranoside (IPTG) for 16 h at 26 °C. The cells were centrifuged for 5 min at 9000g and 4 °C and the wet pellet resuspended in lysis buffer (50 mM Tris, pH 7, 300 mM NaCl, 25 mM imidazole, protease inhibitor cocktail, and 1 mg/mL lysozyme). […] The supernatant was sonicated again as previously described for 10 min and loaded on a HisTrap column (GE Healthcare, Chicago, IL) for 16 h at 4 °C using a P-1 peristaltic pump (GE Healthcare, Chicago, IL). Once loaded, the HisTrap column was connected to an ÄKTA purifier UPC 10 (GE Healthcare, Chicago, IL) and washed using a 5–10% gradient between buffer A (50 mM Tris, pH 7 and 300 mM NaCl) and B (50 mM Tris, pH 7, 300 mM NaCl, and 500 mM imidazole). LiTryR was eluted using a 40% gradient between buffers A and B. Fractions containing recombinant LiTryR were pooled and loaded into a HiPrep 26/10 Desalting column (GE Healthcare, Chicago, IL) previously equilibrated with buffer A. Finally, LiTryR was concentrated to 2 mg/mL using an Amicon Ultra-15 50K (Merck Millipore, Burlington, MA) and an equal volume of glycerol was added before storing at −20 °C.
TryR oxidoreductase activity was determined spectrophotometrically using a modified version of the DTNB-coupled assay described by Hamilton et al.[52] Briefly, reactions were carried out at 26 °C in 250 μL of N-(2-hydroxyethyl)piperazine-N′-ethanesulfonic acid (HEPES) buffer (pH 7.5, 40 mM) containing ethylenediaminetetraacetic acid (EDTA) (1 mM), NADP^+ (30 μM), DTNB (25 μM), TS2 (1 μM), NADPH (150 μM), glycerol (0.02%), DMSO (1.75%), and recombinant TryR (7 nM). […] Reactions were started by addition of a mixture of NADPH and TS2.
TryR oxidoreductase activity was monitored at 26 °C by an increase in absorbance at 412 nm in an EnSpire Multimode Plate Reader (PerkinElmer, Waltham, MA). […] (TNB) concentration was obtained by multiplying the absorbance values by 100 (50 μM TNB generates 0.5 arbitrary units of absorbance at 412 nm). In this DTNB-coupled assay, one molecule of T(SH)2 reduces one molecule of DTNB, producing two TNB molecules. All of the assays were conducted in at least three independent experiments. Data were analyzed using a nonlinear regression model with GraFit 6 software (Erithacus, Horley, Surrey, U.K.).

LiTryR dimer = biological target: T2, LiTryR dimer (Leishmania infantum, UniProt A4HSF7); test: biochemical; conditions: 400 nM LiTryR, 16 h at 37 °C; read-out: IC50^dim, LiTryR monomer displacement (dimer quantitation ELISA)
T2 construct: made in house; host or cells: E. coli BL21 (DE3) Rossetta (co-transformed with both plasmids)
T2 sequence (A4HSF7 1-491): as above
Procedure: The stability of the LiTryR dimeric form in the presence of 1,2,3-triazole-phenyl-thiazole-based compounds was evaluated using the novel enzyme-linked immunosorbent assay (ELISA) developed in our laboratory.[25] […] Next, the different solutions were centrifuged at 18 000g for 15 min at room temperature. The supernatants (200 μL/well) were added to the α-FLAG-coated plates (Sigma-Aldrich, St. Louis, MO) and incubated for 30 min at 37 °C with agitation in a humid atmosphere. The plates were washed five times with TTBS buffer (2 mM Tris, pH 7.6, 138 mM NaCl, and 0.1% Tween-20) and incubated with diluted monoclonal α-HIS horseradish peroxidase (HRP)-conjugated antibody (200 μL, 1:50 000, Abcam, Cambridge, U.K.) in fatty acid- and essentially globulin-free bovine serum albumin (BSA) (5%) prepared in TTBS buffer for 1 h at room temperature. The plates were washed five times, and o-phenylenediamine dihydrochloride (OPD) substrate prepared according to the manufacturer’s instructions was added. The enzymatic reaction was stopped after 5 min with H2SO4 (100 μL, […]), and the absorbances were measured at 490 nm in an EnSpire Multimode Plate Reader (PerkinElmer, Waltham, MA). All of the assays were conducted in triplicate in at least three independent experiments. Data were analyzed using a nonlinear regression model with GraFit 6 software (Erithacus, Horley, Surrey, U.K.).

[1] = tested on: L. infantum promastigotes; test: Leishmanicidal activity on promastigotes (PI exclusion, flow cytometry); assay type: cell-based, Leishmania infantum; conditions: for EC50: Leishmania infantum
Procedure: (§1) L. infantum promastigotes (MCAN/ES/89/IPZ229/1/89) were grown in Roswell Park Memorial Institute (RPMI)-1640 medium (Sigma-Aldrich, St. Louis, MO) supplemented with 10% heat-inactivated fetal calf serum (FCS), antibiotics, and 25 mM HEPES (pH 7.2) at 26 °C. L. infantum axenic amastigotes (MCAN/ES/89/IPZ229/1/89) were grown in M199 medium (Invitrogen, Leiden, The Netherlands) supplemented with 10% heat-inactivated FCS, 1 g/L β-alanine, 100 mg/L L-asparagine, 200 mg/L sucrose, 50 mg/L sodium pyruvate, 320 mg/L malic acid, 40 mg/L fumaric acid, 70 mg/L succinic acid, 200 mg/L α-ketoglutaric acid, 300 mg/L citric acid, 1.1 g/L sodium bicarbonate, 5 g/L morpholineethanesulfonic acid (MES), 0.4 mg/L hemin, and 10 mg/L gentamicine, pH 5.4, at 37 °C.
(§2) Drug treatment of L. infantum promastigotes was performed during the logarithmic growth phase at a concentration of 2 × 10^6 parasites/mL at 26 °C for 24 h. […] EC50 was evaluated by flow cytometry by the propidium iodide (PI) exclusion method. After selection of the parasite population based on their forward scatter (FSC) and side scatter (SSC) values, live and dead parasite cells were identified by their permeability to PI. All of the assays were conducted in triplicate in at least three independent experiments. Data were analyzed using a nonlinear regression model with GraFit 6 software (Erithacus, Horley, Surrey, U.K.).

[2] = tested on: L. infantum axenic amastigotes; test: Leishmanicidal activity on axenic amastigotes (PI exclusion, flow cytometry); assay type: cell-based, Leishmania infantum; conditions: for SIa (ratio of EC50 against human cells to EC50 against amastigotes): HepG2 / axenic amastigotes; for EC50: Leishmania infantum, axenic amastigotes, 24 h at 37 °C, read-out: EC50 amastigotes
Procedure: as §1
Axenization was performed by diluting 0.5 mL of a 7-day stationary phase culture of L. infantum promastigotes (2–3 × 10^7 parasites/mL) in 4.5 mL of amastigotes medium and incubating the culture at 37 °C for 2 or 3 days. L. infantum axenic amastigotes apparition was followed by phase-contrast microscopy using an Eclipse Ti inverted microscope (Nikon, Tokyo, Japan).
as §2

HepG2 cells = test: Cellular toxicity, crystal violet assay; assay type: cell-based; conditions: Homo sapiens, HepG2; 24 h, crystal violet method; read-out: EC50 HepG2
Procedure: Liver hepatocellular carcinoma HepG2 cells were grown in Dulbecco’s modified Eagle’s medium (DMEM) (Sigma-Aldrich, St. Louis, MO) with 10% heat-inactivated FCS, antibiotics, and 10 mM HEPES.
Drug treatment of liver hepatocellular carcinoma HepG2 cells was performed at a concentration of 10^5 cells/mL at 37 °C and 5% CO2 for 24 h. EC50 was evaluated by the crystal violet assay. Briefly, cells were washed with phosphate-buffered saline (PBS) and stained with 200 μL of crystal violet solution (0.2% crystal violet, 2% ethanol) for 10 min at room temperature. Next, the plates were washed twice with tap water and allowed to dry. The stained cells were solubilized with 400 μL of 1% sodium dodecyl sulfate (SDS), and the color intensity was quantified at 570 nm using an EnSpire Multimode Plate Reader (PerkinElmer, Waltham, MA). All of the assays were conducted in triplicate in at least three independent experiments. Data were analyzed using a nonlinear regression model with GraFit 6 software (Erithacus, Horley, Surrey, U.K.).

[3] = tested on: L. infantum intracellular amastigotes; test: Leishmanicidal activity in amastigote-infected THP-1 monocyte-derived macrophages; assay type: cell-based, Leishmania infantum; conditions: for EC50: amastigote-infected THP-1 macrophages, 72 h, read-out: EC50 intracellular amastigotes
Procedure: (§3) THP-1 monocytes were seeded in a 48-well plate at a concentration of 5 × 10^5 cells/mL (250 μL/well) in RPMI complete medium supplemented with phorbol 12-myristate 13-acetate (PMA) (100 ng/mL). Differentiation of THP-1 monocytes to macrophages was allowed for 24 h at 37 °C and 5% CO2. THP-1-derived macrophages were infected with GFP-expressing axenic amastigotes at 5 × 10^6 parasites/mL in RPMI complete medium for 24 h (250 μL/well). Extracellular amastigotes were washed twice with PBS. The remaining extracellular parasites were challenged for 24 h with THP-1 medium supplemented with 10% horse serum (Gibco) instead of FCS. Cells were washed twice with PBS, and treatments were performed in 250 μL of fresh RPMI medium supplemented with 10% horse serum for 72 h at 37 °C and 5% CO2. Afterward, treatments were removed by two PBS washes. Lysis of infected cells was performed with 120 μL of SDS 0.005% (w/v) in PBS. After a 30 min incubation at 37 °C, lysis was stopped by adding RPMI complete medium with PI at 20 μg/mL (120 μL/well). The lysates were transferred to a 96-well plate (200 μL/well), and the GFP^+ amastigotes extracted from the infected cells were acquired by a Beckman Coulter FC500 flow cytometer. Each sample (100 μL) was acquired for 20 s.
The relative number of GFP^+ intracellular amastigotes per cell in each sample was estimated after the division of the total number of GFP+ amastigotes by the LDH activity value of the sample. Results were normalized to the vehicle-treated controls. EC50 values of intracellular amastigotes were calculated using a nonlinear regression model with GraFit 6 software (Erithacus, Horley, Surrey, U.K.). All of the assays were conducted in at least three independent experiments.

[4] = tested on: THP-1 monocyte-derived macrophages; test: Cytotoxicity in THP-1 monocyte-derived macrophages (LDH activity); assay type: cell-based, human; conditions: LDH activity
Procedure: THP-1 cells were grown in RPMI-1640 medium (Gibco, Leiden, The Netherlands) supplemented with 10% heat-inactivated FCS, antibiotics, 10 mM HEPES, 2 mM glutamine, and 1 mM sodium pyruvate, pH 7.2, at 37 °C and 5% CO2.
as §3
Cytotoxicity of THP-1 infected macrophages was determined using an in-house developed lactate dehydrogenase (LDH) activity assay. LDH activity assays from the remaining cell lysates (100 μL/well) were carried out at 37 °C in 250 μL of Tris/HCl buffer (pH 8.9, 50 mM) containing DL-lactate (840 mM), NAD^+ (450 μM), 1-methoxyphenazine methosulfate (45 μM), and nitro blue tetrazolium chloride (40 μM). The color intensity of the generated formazan dye was monitored at 570 nm using an EnSpire Multimode Plate Reader (PerkinElmer, Waltham, MA). CC50 values were calculated using a nonlinear regression model with GraFit 6 software (Erithacus, Horley, Surrey, U.K.).

[5] = 24 h at 26 °C, read-out: EC50 promastigotes
[6] = Leishmania infantum, THP-1, 72 h

Row | Molecule | IC50 (LiTryR) | IC50 (LiTryR dimer) | EC50 [1, 5] | SIa (ratio of EC50 against human cells to EC50 against amastigotes) [2] | EC50 [2] | EC50 (HepG2 cells) | SIp (ratio of EC50 against human cells to EC50 against promastigotes) ([1]; HepG2 / promastigotes) | EC50 [3, 6] | EC50 ([4]; Homo sapiens, THP-1) | EC50 ([1]; promastigotes or amastigotes (either form), read-out: EC50 against Leishmania promastigotes or amastigotes) | SI (intracellular amastigotes) ([3]; THP-1 / intracellular amastigotes) | EC50 [3] | EC50 [4]
1 | COc1cc(-n2cc(CCCCN)nn2)ccc1-c1nc(CCc2ccccc2)cs1.O=C(O)C(F)(F)F [12j] | 20.1 ± 2.5 µM | > 75 µM | 8.5 ± 0.1 µM | 1.7 | 7.1 ± 0.7 µM | 12.4 ± 0.7 µM | – | – | – | – | – | – | –
2 | CCCCCCCCCCCCCCCCOP(=O)([O-])OCC[N+](C)(C)C [miltefosine, reference compound] | – | – | 47.6 ± 0.6 µM | > 37.5 | 2 ± 0.1 µM | > 75 µM | > 1.6 | 0.6 ± 0.1 µM | > 25 µM | – | – | – | –
3 | NCCCCc1cn(-c2ccc(-c3nc(-c4ccc(-c5ccccc5)cc4)c(-c4ccccc4)s3)c(OCCN3CCNC3=O)c2)nn1.O=C(O)C(F)(F)F [19b, 1-(2-(5-(4-(4-Ammoniobutyl)-1H-1,2,3-triazol-1-yl)-2-(4-([1,1′-biphenyl]-4-yl)-5-phenylthiazol-2-yl)phenoxy)ethyl)imidazolidin-2-one 2,2,2-Trifluoroacetate] | 18.4 ± 3.9 µM | 11.3 ± 0.2 µM | – | ND/1.8 | 9.4 ± 0.5 µM | 17.3 ± 0.1 µM | – | – | – | < 10 µM | – | – | –
4 | edelfosine [reference compound] | – | – | – | – | – | – | – | – | – | – | 1.4 | 2.5 ± 0.02 µM | 3.5 ± 0.3 µM
5 | C[C@@H]1[C@H](O)[C@@H](C)/C=C/C=C/C=C/C=C/C=C/C=C/C=C/[C@H](O[C@@H]2O[C@H](C)[C@@H](O)[C@H](N)[C@@H]2O)C[C@@H]2O[C@](O)(C[C@@H](O)C[C@@H](O)[C@H](O)CC[C@@H](O)C[C@@H](O)CC(=O)O[C@H]1C)C[C@H](O)[C@H]2C(=O)O [amphotericin B, reference compound] | – | – | – | – | – | – | – | 0.07 ± 0.01 µM | > 5 µM | – | – | – | –
